# Test results as given in ChEMBL document CHEMBL4017472, “New modified 2-aminobenzimidazole nucleosides: Synthesis and evaluation of their activity against herpes simplex virus type 1” (Bioorg Med Chem Lett, 2017).
# Columns and labels:
# Human alphaherpesvirus 1 [1] = test: Antiviral activity against acyclovir and foscarnet-resistant HSV-1 L2 infected in African green monkey Vero E6 cells assessed as inhibition of viral reproduction measured after 48 hrs post infection by gentian violet staining based plaque reduction assay; type: functional; conditions: Vero C1008
# Human alphaherpesvirus 1 [2] = test: Potency index, ratio of ribavirin IC50 to compound IC50 for HSV-1 L2 infected in African green monkey Vero E6 cells; type: functional, Vero C1008
# Human alphaherpesvirus 1 [3] = test: Antiviral activity against acyclovir-resistant HSV-1 L2 infected in African green monkey Vero E6 cells assessed as reduction in virus-induced cytopathic effect; type: functional; conditions: Human alphaherpesvirus 1, L2, Vero C1008
# Human alphaherpesvirus 1 [4] = test: Antiviral activity against HSV-1 L2 infected in African green monkey Vero E6 cells assessed as viral reproduction at 415 uM measured after 48 hrs post infection by gentian violet staining based plaque reduction assay (reference value: 6.91 +/- 0.05 log10PFU/ml); type: functional, Vero C1008
# [5] = Selectivity index, ratio of MCC for African green monkey Vero E6 cells to IC50 for HSV-1 F+ infected in African green monkey Vero E6 cells; parameters: species or system Vero C1008
# Human alphaherpesvirus 1 [6] = test: Antiviral activity against acyclovir and foscarnet-resistant HSV-1 L2 infected in African green monkey Vero E6 cells assessed as viral reproduction at 207 uM measured after 48 hrs post infection by gentian violet staining based plaque reduction assay (reference value: 5.92 +/- 0.11 log10PFU/ml); type: functional, Vero C1008
# Human alphaherpesvirus 1 [7] = test: Antiviral activity against foscarnet-resistant HSV-1 F+ infected in African green monkey Vero E6 cells assessed as viral reproduction at 207 uM measured after 48 hrs post infection by gentian violet staining based plaque reduction assay (reference value: 6.6 +/- 0.1 log10PFU/ml); type: functional, Vero C1008
# Human alphaherpesvirus 1 [8] = test: Antiviral activity against acyclovir and cidofovir-resistant HSV-1 L2 infected in African green monkey Vero E6 cells assessed as viral reproduction at 104 uM measured after 48 hrs post infection by gentian violet staining based plaque reduction assay (reference value: 6.52 +/- 0.11 log10PFU/ml); type: functional, Vero C1008
# Human alphaherpesvirus 1 [9] = test: Antiviral activity against HSV-1 L2/Rp-ACV/2 infected in African green monkey Vero E6 cells assessed as reduction in virus-induced cytopathic effect; type: functional; conditions: Human alphaherpesvirus 1, L2/Rp-ACV/2, Vero C1008
# Human alphaherpesvirus 1 [10] = test: Antiviral activity against foscarnet-resistant HSV-1 F+ infected in African green monkey Vero E6 cells assessed as inhibition of viral reproduction measured after 48 hrs post infection by gentian violet staining based plaque reduction assay; type: functional; conditions: Vero C1008
# Human alphaherpesvirus 1 [11] = test: Antiviral activity against foscarnet-resistant HSV-1 F+ infected in African green monkey Vero E6 cells assessed as viral reproduction at 415 uM measured after 48 hrs post infection by gentian violet staining based plaque reduction assay (reference value: 6.6 +/- 0.1 log10PFU/ml); type: functional, Vero C1008
# [12] = Selectivity index, ratio of MCC for African green monkey Vero E6 cells to IC50 for HSV-1 L2/Rp-ACV/2 infected in African green monkey Vero E6 cells; parameters: species or system Vero C1008
# Human alphaherpesvirus 1 [13] = test: Antiviral activity against HSV-1 L2/Rp-ACV/2 infected in African green monkey Vero E6 cells assessed as viral reproduction at 207 uM measured after 48 hrs post infection by gentian violet staining based plaque reduction assay (reference value: 6.05 +/- 0.1 log10PFU/ml); type: functional, Vero C1008
# Human alphaherpesvirus 1 [14] = test: Antiviral activity against acyclovir and cidofovir-resistant HSV-1 L2 infected in African green monkey Vero E6 cells assessed as viral reproduction at 415 uM measured after 48 hrs post infection by gentian violet staining based plaque reduction assay (reference value: 6.52 +/- 0.11 log10PFU/ml); type: functional, Vero C1008
# Human alphaherpesvirus 1 [15] = test: Antiviral activity against acyclovir and foscarnet-resistant HSV-1 L2 infected in African green monkey Vero E6 cells assessed as reduction in virus-induced cytopathic effect; type: functional; conditions: Human alphaherpesvirus 1, L2, Vero C1008
# [16] = Selectivity index, ratio of MCC for African green monkey Vero E6 cells to IC50 for HSV-1 L2 infected in African green monkey Vero E6 cells; parameters: species or system Vero C1008
# [17] = Cytotoxicity against African green monkey Vero E6 cells measured after 3 days by trypan blue assay; type: cell-based, Vero C1008; conditions: chlorocebus sabaeus
# Human alphaherpesvirus 1 [18] = test: Antiviral activity against foscarnet-resistant HSV-1 F+ infected in African green monkey Vero E6 cells assessed as viral reproduction at 52 uM measured after 48 hrs post infection by gentian violet staining based plaque reduction assay (reference value: 6.6 +/- 0.1 log10PFU/ml); type: functional, Vero C1008
# Human alphaherpesvirus 1 [19] = test: Antiviral activity against HSV-1 L2/Rp-ACV/2 infected in African green monkey Vero E6 cells assessed as viral reproduction at 52 uM measured after 48 hrs post infection by gentian violet staining based plaque reduction assay (reference value: 6.05 +/- 0.1 log10PFU/ml); type: functional, Vero C1008
# Human alphaherpesvirus 1 [20] = test: Antiviral activity against acyclovir and cidofovir-resistant HSV-1 L2 infected in African green monkey Vero E6 cells assessed as viral reproduction at 207 uM measured after 48 hrs post infection by gentian violet staining based plaque reduction assay (reference value: 6.52 +/- 0.11 log10PFU/ml); type: functional, Vero C1008
# Human alphaherpesvirus 1 [21] = test: Antiviral activity against HSV-1 L2 infected in African green monkey Vero E6 cells assessed as inhibition of viral reproduction measured after 48 hrs post infection by gentian violet staining based plaque reduction assay; type: functional; conditions: Vero C1008
# Human alphaherpesvirus 1 [22] = test: Antiviral activity against acyclovir-resistant HSV-1 L2 infected in African green monkey Vero E6 cells assessed as viral reproduction at 104 uM measured after 48 hrs post infection by gentian violet staining based plaque reduction assay (reference value: 5.95 +/- 0.03 log10PFU/ml); type: functional, Vero C1008
# Human alphaherpesvirus 1 [23] = test: Antiviral activity against HSV1 L2 infected in African green monkey Vero E6 cells assessed as reduction in virus-induced cytopathic effect; type: functional; conditions: Human alphaherpesvirus 1, L2, Vero C1008
# Human alphaherpesvirus 1 [24] = test: Antiviral activity against acyclovir-resistant HSV-1 L2 infected in African green monkey Vero E6 cells assessed as viral reproduction at 52 uM measured after 48 hrs post infection by gentian violet staining based plaque reduction assay (reference value: 5.95 +/- 0.03 log10PFU/ml); type: functional, Vero C1008
# Human alphaherpesvirus 1 [25] = test: Antiviral activity against HSV-1 L2 infected in African green monkey Vero E6 cells assessed as viral reproduction at 52 uM measured after 48 hrs post infection by gentian violet staining based plaque reduction assay (reference value: 6.91 +/- 0.05 log10PFU/ml); type: functional, Vero C1008
# Human alphaherpesvirus 1 [26] = test: Potency index, ratio of maribavir IC50 to compound IC50 for HSV-1 L2 infected in African green monkey Vero E6 cells; type: functional, Vero C1008
# Human alphaherpesvirus 1 [27] = test: Antiviral activity against HSV-1 L2 infected in African green monkey Vero E6 cells assessed as viral reproduction at 104 uM measured after 48 hrs post infection by gentian violet staining based plaque reduction assay (reference value: 6.91 +/- 0.05 log10PFU/ml); type: functional, Vero C1008
# Human alphaherpesvirus 1 [28] = test: Antiviral activity against acyclovir and foscarnet-resistant HSV-1 L2 infected in African green monkey Vero E6 cells assessed as viral reproduction at 52 uM measured after 48 hrs post infection by gentian violet staining based plaque reduction assay (reference value: 5.92 +/- 0.11 log10PFU/ml); type: functional, Vero C1008
# Human alphaherpesvirus 1 [29] = test: Antiviral activity against HSV-1 L2/Rp-ACV/2 infected in African green monkey Vero E6 cells assessed as viral reproduction at 104 uM measured after 48 hrs post infection by gentian violet staining based plaque reduction assay (reference value: 6.05 +/- 0.1 log10PFU/ml); type: functional, Vero C1008
compound,measurement,setting,value
Nc1nc2cc(F)c(F)cc2n1[C@@H]1O[C@H](CO)[C@@H](O)[C@H]1O,inhibition,Human alphaherpesvirus 1 [1],Dose-dependent effect
same,Ratio IC50,Human alphaherpesvirus 1 [2],4
same,IC50,Human alphaherpesvirus 1 [3],104 µM
same,IC95,Human alphaherpesvirus 1 [3],830 µM
same,Activity,Human alphaherpesvirus 1 [4],4.38 log10PFU/ml
same,Selectivity Index,[5],>16
same,Activity,Human alphaherpesvirus 1 [6],4.47 log10PFU/ml
same,Activity,Human alphaherpesvirus 1 [7],4.87 log10PFU/ml
same,Activity,Human alphaherpesvirus 1 [8],5.39 log10PFU/ml
same,IC50,Human alphaherpesvirus 1 [9],104 µM
same,IC95,Human alphaherpesvirus 1 [9],830 µM
same,inhibition,Human alphaherpesvirus 1 [10],Dose-dependent effect
same,Activity,Human alphaherpesvirus 1 [11],3.9 log10PFU/ml
same,Selectivity Index,[12],>32
same,Activity,Human alphaherpesvirus 1 [13],4.55 log10PFU/ml
same,Activity,Human alphaherpesvirus 1 [14],4.61 log10PFU/ml
same,IC50,Human alphaherpesvirus 1 [15],208 µM
same,IC95,Human alphaherpesvirus 1 [15],830 µM
same,Selectivity Index,[16],>32
same,MCC at 72 h,[17],> 3.32 mM
same,Activity,Human alphaherpesvirus 1 [18],5.9 log10PFU/ml
same,Activity,Human alphaherpesvirus 1 [19],5.32 log10PFU/ml
same,Activity,Human alphaherpesvirus 1 [20],5.06 log10PFU/ml
same,inhibition,Human alphaherpesvirus 1 [21],Dose-dependent effect
same,Activity,Human alphaherpesvirus 1 [22],4.44 log10PFU/ml
same,IC50,Human alphaherpesvirus 1 [23],104 µM
same,IC95,Human alphaherpesvirus 1 [23],830 µM
same,Activity,Human alphaherpesvirus 1 [24],5.04 log10PFU/ml
same,Activity,Human alphaherpesvirus 1 [25],6.11 log10PFU/ml
same,Ratio IC50,Human alphaherpesvirus 1 [26],8
same,Activity,Human alphaherpesvirus 1 [27],5.63 log10PFU/ml
same,Activity,Human alphaherpesvirus 1 [28],5.4 log10PFU/ml
same,Activity,Human alphaherpesvirus 1 [29],4.76 log10PFU/ml
